Measurements taken from article PMC11579209, “Population pharmacokinetics and exposure–response relationships of maribavir in transplant recipients with cytomegalovirus infection” (Journal of Pharmacokinetics and Pharmacodynamics, 2024).
Like-named read-outs stand apart in the source and are kept apart here.

What was measured:
[1] = Individual predicted steady-state PK parameters (400 mg BID) derived from the final PopPK model; format: in vivo; settings: for Ctrough.ss, geometric mean (%CV) / AUC / Cmax / half-life: 400 mg BID steady state; for AUC / Cmax / half-life: human, plasma, oral, 400 mg; for AUC: read-out: AUC0–τ, geometric mean (%CV); for Cmax: read-out: Cmax.ss, geometric mean (%CV); for half-life: read-out: Half-life, geometric mean (%CV) (converted)
Procedure: The final model was used to derive individual estimates of steady-state AUC over one dosing interval (AUC0–τ), Cmax.ss, and minimum maribavir plasma concentration (Ctrough.ss) for a 400 mg BID dosing regimen for all participants in the PopPK analysis. Individual estimates of Cmax.ss, Ctrough.ss, and AUC0–τ were obtained by prediction of the concentration–time profiles (concentrations predicted at 0, 1, 2, 3, 4, 6, 8 and 12 h) after a steady-state dose of 400 mg BID for respective individuals using their individual post hoc parameter values in the absence of strong CYP3A4 inducers or strong CYP3A4 inhibitors, and zero values for residual variability. The PK parameters AUC0–τ (linear up/log down trapezoidal rule), Cmax.ss, and Ctrough.ss were determined by non-compartmental methods.
The mean (percentage coefficient of variation [CV%]), geometric mean (GM) CV%, median, and percentiles for AUC0–τ, Cmax.ss, and Ctrough.ss were obtained overall and by health status (healthy individuals, all transplant recipients with CMV infection, and transplant recipients with refractory CMV infection in the phase 3 SOLSTICE study). For transplant patients with CMV infections, summary statistics were provided by covariates of interest including age (18 to < 65 years and ≥ 65 years; 18 to < 65 years, 65 to < 75 years, and 75 to < 85 years), sex, race, ethnicity, body mass index (BMI; underweight [< 18.5 kg/m^2], normal weight [18.5 to < 25 kg/m^2], overweight [25 to < 30 kg/m^2], obese [≥ 30 kg/m^2]), concurrent PPI, concurrent H2 inhibitors, transplant type, baseline plasma CMV DNA (low and intermediate/high), CMV category, hepatic impairment (none, Child-Pugh Class A, Child-Pugh Class B), presence of CMV mutations at baseline, and baseline use of antilymphocyte antibody. For the PPI and H2 inhibitor analyses, PK parameters were computed only for patients receiving the relevant concomitant medication for all their PK observations and for those who never received the relevant concomitant medication. For healthy individuals, summary statistics were provided by the following covariates of interest: age (≤ 65 years, > 65 years), sex, race, ethnicity, and BMI.

[2] = cited from earlier work
[3] = tested on: Cytochrome P450 (CYP) 3A4; parameters: method as in PMID 12654667, doi:10.1016/j.bbmt.2018.12.600; settings: formation of VP44469; cited from earlier work
[4] = tested on: plasma proteins; parameters: method as in earlier work; settings: cited from earlier work
[5] = parameters: method as in PMID 31532960, PMID 30329038; settings: doses up to 1200 mg BID, cited from earlier work
[6] = all transplant patients with CMV infection, n = 485
[7] = refractory CMV infection (SOLSTICE only), n = 253
[8] = transplant patients with CMV, 400 mg BID
[9] = transplant patients with CMV, n = 5 in older group

CC(C)Nc1nc2cc(Cl)c(Cl)cc2n1[C@H]1O[C@@H](CO)[C@H](O)[C@@H]1O [maribavir]
Ctrough.ss, geometric mean (%CV) ([1]; all participants, n = 667): 4.33 (89.7) μg/mL
Ctrough.ss, geometric mean (%CV) [1, 6]: 4.90 (89.7) µg/mL
Ctrough.ss, geometric mean (%CV) ([1]; healthy volunteers, n = 133): 2.89 (71.7) μg/mL
Ctrough.ss, geometric mean (%CV) [1, 7]: 5.13 (93.0) µg/mL
GM AUC0-τ higher in transplant patients with CMV infection than in healthy volunteers ([1]; 400 mg BID, steady state): 27%
GM Cmax.ss higher in transplant patients with CMV infection than in healthy volunteers ([1]; 400 mg BID, steady state): 5%
AUC ([1]; all participants, n = 667): 121 µg·h/mL
Cmax ([1]; all participants, n = 667): 17200 ng/mL
half-life ([1]; all participants, n = 667): 10.9 h
AUC [1, 6]: 128 µg·h/mL
Cmax [1, 6]: 17200 ng/mL
AUC ([1]; healthy volunteers, n = 133): 101 µg·h/mL
Cmax ([1]; healthy volunteers, n = 133): 16400 ng/mL
half-life ([1]; healthy volunteers, n = 133): 9.04 h
Cmax [1, 7]: 16900 ng/mL
AUC ([1]; transplant patients with refractory CMV infection (SOLSTICE only), n = 253): 129 µg·h/mL
GM AUC0-τ higher in underweight (BMI < 18.5 kg/m^2) than normal-weight patients [1, 8]: 24%
GM AUC0τ higher in female than male patients [1, 8]: 19%
GM Cmax.ss higher in female than male patients [1, 8]: 25%
GM Cmax.ss higher in underweight (BMI < 18.5 kg/m^2) than normal-weight patients [1, 8]: 31%
Maribavir exposure between patients with no, Child-Pugh class A, or Child-Pugh class B hepatic impairment [1, 8]: similar
Maribavir exposure with or without PPI [1, 8]: similar
Maribavir exposure with or without histamine H2 blockers [1, 8]: similar
AUC0-τ higher in patients aged 75 to < 85 years vs 18 to < 65 years [1, 9]: 54%
Cmax.ss higher in patients aged 75 to < 85 years vs 18 to < 65 years [1, 9]: 38%
Time to steady-state exposure ([2]; 400 mg BID, transplant recipients with CMV infection): ≤ 2 days
PK in patients with mild or moderate hepatic impairment [2]: unaffected
Renal excretion as share of total clearance of unchanged drug [2]: < 2%
Systemic exposure in healthy Japanese individuals compared with White individuals [2]: higher
Mean half-life ([2]; healthy volunteers): 3.0 to 4.8 h
Median time to maximum plasma concentration (Tmax) ([2]; oral administration): 1 to 3 h
Dose proportionality of PK ([2]; single doses of up to 1600 mg and multiple doses up to 2400 mg per day): dose-proportional
Mean half-life ([2]; transplant recipients): 4.3 h
Share of CYP-mediated metabolism by CYP3A4 [3]: 70–85%
Bound to plasma proteins [4]: approximately 98%
Dose-related myelosuppression [5]: no evidence of dose-related myelosuppression
Incidence of dysgeusia across doses ([5]; transplant recipients with refractory CMV infection): similar
